In one series the target is D2S (h) (Homo sapiens, UniProt P14416). The series can be described thus: Receptor panel, Study 1. Format: binding. The method, then:
RESULTS AND DISCUSSION—Selectivity—The compound of Formula (III) was evaluated in three selectivity panels to assess the potential for off-target pharmacology (Table 8). […] The kinase off-target profile of The compound of Formula (III) was assessed in a full human wild-type panel using radiometric kinase activity assays (KinaseProfiler™ and IC50Profiler™; Eurofins Scientific) (Table 9; FIG. 23). The compound of Formula (III) inhibited 4/278 kinases >50% at 1 micromolar, identifying BTK and the three other kinases having analogous Cys residues with the potential for covalent inhibition (BMX, TEC, BLK). […]. The cellular kinase selectivity of The compound of Formula (III) was established in native Ramos B cell kinome assays (KiNativ™; ActivX) confirmed BTK as the primary target with inhibition of BLK and TEC inhibition detected (Table 10).

Series [1] in a line: Plasma protein binding, equilibrium dialysis. It is filed as in vitro ADME. The method, then: (§1) Additional Data on Preclinical PK Profile—Protein binding of the compound of Formula (III) was studied using an equilibrium dialysis method in plasma from human, cynomolgus monkey, beagle dog, Sprague Dawley rat, CD-1 mouse, and guinea pig at 0.25, 2.5, and 25 μM. […] In human and monkey, the plasma protein binding was concentration dependent. […] Free fraction of the compound of Formula (III) in liver microsomes from various species ranged from 75.1% to 87.9% at 0.25 mg/mL and from 58.9% to 86.5% at 1.0 mg/mL (Table 17). […] In hepatocytes, the compound of Formula (III) turnover followed a similar trend, with T1/2 ranging from 75.3 minutes in monkey to 278.1 minutes in human.
For orientation: In equilibrium dialysis free small molecules cross a membrane that holds back macromolecules.

The nature of series [2]: Metabolic stability in liver microsomes. Format: in vitro ADME, mouse. How it is done: as §1
For orientation: Microsomes from liver hold many membrane-bound enzymes, among them those of drug oxidation.

The next series has as its target T1, CYP3A4 (Homo sapiens, UniProt P08684).
T1 construct: with specific CYP probe substrates in human liver microsomes; from tissue; host or cells: human liver microsomes
The series can be described thus: Metabolism by recombinant CYPs. Particulars: 1 μM, 100 pmol P450/mL, 1 mM NADPH. Format: in vitro ADME. The method, then:
To assess the potential of the compound of Formula (III) to be a time-dependent inhibitor of CYP3A, human liver microsomes were preincubated for 30 minutes at 37° C. with the compound of Formula (III) at concentrations up to 10 μM, and CYP3A activity was measured using testosterone as a probe substrate. […] The potential of the compound of Formula (III) to induce CYPs at the transcriptional level was assessed using Puracyp™ DPX2 (CYP3A4, PXR) and DRE (CYP1A2, AhR) luciferase-reporter cell lines; rifampicin and omeprazole were used as positive controls for CYP3A and CYP1A induction, respectively. The activation by the compound of Formula (III) was <20% of positive control values for PXR (6.6% and 14.1% at 1 and 10 μM change, respectively) or AhR (0.1% and 0.3% change, respectively). […] Potential involvement of various CYP isoforms in the metabolism of the compound of Formula (III) was investigated by measuring the parent compound remaining after 1-hour incubation with the compound of Formula (III) (1 μM) with recombinant CYPs (rCYPs) at 100 pmol P450/mL in the presence of 1 mM NADPH at 37° C. The only isozyme that produced notable the compound of Formula (III) turnover with <1% parent remaining after 1-hour incubation was CYP3A4 (FIG. 24). […]

The target of the next series is BTK (Homo sapiens, UniProt Q06187). Nature of the series: Mechanistic PK/BTKO model and simulations. The arrangement: measuring free BTK levels in peripheral blood mononuclear cells (PBMCs) and calculating % BTKO; endogenous in cells; host or cells: human PBMCs, lysed after isolation from whole blood. An excerpt: A mechanistic covalent binding model (FIG. 2) was used to describe the receptor occupancy of compound of Formula (III). The equations describing the binding model are shown in equations 1-5.
where symbols represent the free BTK protein concentration (BTK), drug-BTK complex (BTKb) and covalently bound complex (BTKi). The rate constants in the equations include zero-order rate of BTK synthesis (ksyn); the first-order rate of free BTK degradation (kdegf); the first-order rate of covalently bound complex degradation (Kdegi); association rate drug-BTK binding (kon); dissociation rate drug-BTK binding (koff). C1 is the concentration in central compartment. BTK0 is the baseline value of BTK. […]
In order to refine predictions of % BTKO after multiple dosing for the MAD cohorts and to help select a starting dose for the subsequent first-in-patient oncology study, a prior mechanistic PK/PD model based on in vitro and in vivo BTKO data was updated with clinical PK/BTKO data collected from SAD cohorts of the FIH study. […] The evaluated dosing regimens included 12 mg, 36 mg, 70 mg, 100 mg, 140 mg, 200 mg QD dose. […]
Once MAD data were available, the semi-mechanistic PK/PD model was updated with the acquired data from SAD and MAD cohorts. All covariate effects in the popPK analysis were evaluated on clearance from the central compartment (CL/F) only, except for body weight, food effect, and drug formulation. […]

Where [3] appears, read: CD-1, mouse, read-out: % Free in plasma.
Where [4] appears, read: beagle, dog, read-out: % Free in plasma.
Setting [5] is: cynomolgus monkey, read-out: % Free in plasma.

Read-outs that look alike come from different tables or passages of the source.

Chain of BTK (Q06187 whole entry): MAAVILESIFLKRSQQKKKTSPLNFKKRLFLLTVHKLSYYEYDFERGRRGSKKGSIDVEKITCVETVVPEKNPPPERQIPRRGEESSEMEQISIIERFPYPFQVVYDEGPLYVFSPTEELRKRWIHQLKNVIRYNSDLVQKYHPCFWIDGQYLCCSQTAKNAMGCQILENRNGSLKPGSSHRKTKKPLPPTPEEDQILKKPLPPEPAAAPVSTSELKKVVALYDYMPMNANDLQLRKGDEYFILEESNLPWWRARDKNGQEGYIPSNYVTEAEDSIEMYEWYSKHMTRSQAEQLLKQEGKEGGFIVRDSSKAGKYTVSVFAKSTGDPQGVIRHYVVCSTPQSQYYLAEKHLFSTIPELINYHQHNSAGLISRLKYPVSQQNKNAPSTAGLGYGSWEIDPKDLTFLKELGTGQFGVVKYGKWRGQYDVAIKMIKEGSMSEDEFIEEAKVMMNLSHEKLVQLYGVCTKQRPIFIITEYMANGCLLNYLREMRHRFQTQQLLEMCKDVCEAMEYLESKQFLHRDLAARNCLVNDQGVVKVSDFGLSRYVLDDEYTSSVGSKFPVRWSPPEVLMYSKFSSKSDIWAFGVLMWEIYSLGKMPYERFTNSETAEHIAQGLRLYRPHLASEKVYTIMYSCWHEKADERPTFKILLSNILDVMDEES
T1 sequence (P08684 whole entry): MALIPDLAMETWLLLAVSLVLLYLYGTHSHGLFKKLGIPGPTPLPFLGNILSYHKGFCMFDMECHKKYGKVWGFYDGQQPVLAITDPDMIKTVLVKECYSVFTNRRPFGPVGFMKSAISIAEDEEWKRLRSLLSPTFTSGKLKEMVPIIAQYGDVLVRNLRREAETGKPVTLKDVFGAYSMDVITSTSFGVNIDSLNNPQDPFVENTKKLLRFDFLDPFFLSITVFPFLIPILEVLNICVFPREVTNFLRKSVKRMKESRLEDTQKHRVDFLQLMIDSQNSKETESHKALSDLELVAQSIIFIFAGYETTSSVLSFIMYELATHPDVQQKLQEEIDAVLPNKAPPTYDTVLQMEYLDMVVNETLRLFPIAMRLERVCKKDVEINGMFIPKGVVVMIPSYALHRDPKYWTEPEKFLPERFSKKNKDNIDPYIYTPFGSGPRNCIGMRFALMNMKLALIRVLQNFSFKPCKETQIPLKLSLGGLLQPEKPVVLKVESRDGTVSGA
Chain of D2S (h) (P14416 1-414 isoform P14416-2): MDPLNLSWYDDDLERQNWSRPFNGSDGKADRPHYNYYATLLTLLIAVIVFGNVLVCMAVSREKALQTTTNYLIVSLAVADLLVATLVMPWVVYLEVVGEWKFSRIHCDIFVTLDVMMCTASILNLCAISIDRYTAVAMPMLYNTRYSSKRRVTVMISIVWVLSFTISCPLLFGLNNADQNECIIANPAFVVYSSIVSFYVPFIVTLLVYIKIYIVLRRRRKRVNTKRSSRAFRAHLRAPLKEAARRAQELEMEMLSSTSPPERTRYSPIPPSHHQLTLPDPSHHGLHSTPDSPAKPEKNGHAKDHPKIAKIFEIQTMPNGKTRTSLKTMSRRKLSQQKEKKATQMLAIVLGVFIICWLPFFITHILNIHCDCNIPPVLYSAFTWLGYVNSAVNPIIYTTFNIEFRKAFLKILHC

The term inhibition denotes the drop in the measured response relative to a control, in per cent. By microsomal CLint is commonly meant the capacity of the preparation to metabolise the compound, expressed as a volume cleared per time. Read a low microsomal CLint as greater metabolic stability. In turn, `C=CC(=O)N[C@H]1CCC[C@H]1NC(=O)c1sc2nccc3c2c1NC(=O)N3c1cnc(CC(C)C)cc1C` (atropisomer, axis not shown) [compound of Formula (III), N-((1R,2S)-2-Acrylamidocyclopentyl)-5-(S)-(6-isobutyl-4-methylpyridin-3-yl)-4-oxo-4,5-dihydro-3H-1-thia-3,5,8-triazaacenaphthylene-2-carboxamide] showed an inhibition at 10 µM at D2S (h) below 10%. Further, the figures for the fraction unbound at 0.25 μM in series [1] (setting [3]), in series [1] (setting [4]) and in series [1] (setting [5]) were 0.0192, 0.0688 and below 0.004, respectively. For the same molecule, the fraction unbound at 2.5 μM in series [1] (CD-1, mouse, 2.5 μM, read-out: % Free in plasma) stood at 0.024. Also, the fraction unbound at 25 μM in series [1] (setting [3]) is 0.0335; in series [1] (setting [4]), 0.0685; in series [1] (setting [5]), 0.0532. In addition, the fraction unbound at 1 μM in series [1] (female, Wistar, rat, read-out: free fraction in plasma) was 0.0754. Further, in series [2] (Mouse), the “Extraction Ratio, liver microsomes” value turned out to be 0.79. The same molecule gave a microsomal CLint in series [2] (mouse, liver microsomes) of 142 µL/min/mg. For the same molecule, in series [2] (mouse, liver microsomes, read-out: T1/2, liver microsomes), the half-life was 4.9 min. For the same molecule, the “parent remaining after 1-hour incubation” value at CYP3A4 is on record as below 1%. For the same molecule, the “kon, PD model estimate” value is on record as 0.0447 l/nM/h on BTK (model (A), SAD cohorts 2-5); 0.0509 l/nM/h on BTK (model (B), all SAD and MAD data).

The record behind these values is US12622910B2, “Inhibitors of Bruton's tyrosine kinase and methods of their use” (Janssen Pharmaceutica NV, priority 2021, dated 2026).
